{"source": "paper PMC5571344", "about": "“Identification and Mode of Action of a Plant Natural Product Targeting Human Fungal Pathogens” (Antimicrobial Agents and Chemotherapy, 2017)", "test_in_all_cases": "microbe, parasite or virus in culture", "key": {"C. albicans [1]": {"system": "C. albicans", "set-up": "species or system Candida strains; broth microdilution antifungal susceptibility according to EUCAST protocols, growth inhibition MIC", "conditions": "Candida albicans, EUCAST, read-out: MIC Fluconazole", "method": "(§1) The results of [compound left out] susceptibility assays with several clinically relevant Candida species are shown on Fig. 2B. All strains, except C. glabrata, were highly susceptible to [compound left out]. […] [compound left out] […] The yeast and bacterial strains used in the study are listed in Table S1 in the supplemental material. NPs were dissolved in DMSO to 10 μg/ml. [compound left out] [compound left out] was purchased from Phytolab (GmbH), dissolved in DMSO at a 2 mM concentration, heated for 20 min at 50°C for solubilization, and stored at −20°C until usage."}, "C. tropicalis [2]": {"system": "C. tropicalis", "set-up": "species or system Candida strains; broth microdilution antifungal susceptibility according to EUCAST protocols, growth inhibition MIC", "conditions": "Candida tropicalis, EUCAST, read-out: MIC Fluconazole", "method": "as §1"}, "[3]": {"system": "Pichia kudriavzevii C. krusei", "set-up": "species or system Candida strains; broth microdilution antifungal susceptibility according to EUCAST protocols, growth inhibition MIC", "conditions": "DSY2293, EUCAST, read-out: MIC Fluconazole", "method": "as §1"}, "C. albicans [4]": {"system": "C. albicans", "set-up": "species or system Candida strains; broth microdilution antifungal susceptibility in YNB buffered at pH 7.0, growth inhibition MIC", "conditions": "Candida albicans, YNB pH 7.0", "method": "as §1"}, "C. tropicalis [5]": {"system": "C. tropicalis", "set-up": "species or system Candida strains; broth microdilution antifungal susceptibility in YNB buffered at pH 7.0, growth inhibition MIC", "conditions": "Candida tropicalis, YNB pH 7.0", "method": "as §1"}, "[6]": {"system": "Pichia kudriavzevii C. krusei", "set-up": "species or system Candida strains; broth microdilution antifungal susceptibility in YNB buffered at pH 7.0, growth inhibition MIC", "method": "as §1"}}, "note": "Like-named read-outs stand apart in the source and are kept apart here.", "data": [{"smiles": "OC(Cn1cncn1)(Cn1cncn1)c1ccc(F)cc1F", "note": "[Fluconazole]", "values": [{"measurement": "MIC", "setting": "C. albicans [1]; DSY227", "result": 0.5, "unit": "µg/mL"}, {"measurement": "MIC", "setting": "C. albicans [1]; DSY288", "result": 1, "unit": "µg/mL"}, {"measurement": "MIC", "setting": "C. albicans [1]; DSY297", "result": 2, "unit": "µg/mL"}, {"measurement": "MIC", "setting": "C. albicans [1]; DSY299", "result": 0.25, "unit": "µg/mL"}, {"measurement": "MIC", "setting": "C. tropicalis [2]; DSY381", "result": 0.5, "unit": "µg/mL"}, {"measurement": "MIC", "setting": "C. tropicalis [2]; DSY2274", "result": 2, "unit": "µg/mL"}, {"measurement": "MIC", "setting": "C. tropicalis [2]; DSY2336", "result": 16, "unit": "µg/mL"}, {"measurement": "MIC", "setting": "C. tropicalis [2]; DSY2374", "result": 8, "unit": "µg/mL"}, {"measurement": "MIC", "setting": "C. tropicalis [2]; DSY2825", "result": 128, "unit": "µg/mL"}, {"measurement": "MIC", "setting": "C. tropicalis [2]; DSY2897", "result": 4, "unit": "µg/mL"}, {"measurement": "MIC", "setting": "[3]", "result": 32, "unit": "µg/mL"}]}, {"smiles": "C[C@H]1CC[C@]2(NC1)O[C@H]1C[C@H]3[C@@H]4CC[C@H]5C[C@@H](O)CC[C@]5(C)[C@H]4CC[C@]3(C)[C@H]1[C@@H]2C", "note": "[compound 22, Tomatidine]", "values": [{"measurement": "MIC", "setting": "C. albicans [4]; DSY227", "result": 0.625, "unit": "µM"}, {"measurement": "MIC", "setting": "C. albicans [4]; DSY281", "result": 0.312, "unit": "µM"}, {"measurement": "MIC", "setting": "C. albicans [4]; DSY290", "result": 2.5, "unit": "µM"}, {"measurement": "MIC", "setting": "C. tropicalis [5]; DSY381", "result": 0.312, "unit": "µM"}, {"measurement": "MIC", "setting": "C. tropicalis [5]; DSY826", "result": 0.15, "unit": "µM"}, {"measurement": "MIC", "setting": "C. tropicalis [5]; DSY2274", "result": 2.5, "unit": "µM"}, {"measurement": "MIC", "setting": "C. tropicalis [5]; DSY2310", "result": 1.25, "unit": "µM"}, {"measurement": "MIC", "setting": "C. tropicalis [5]; DSY2825", "result": 5, "unit": "µM"}, {"measurement": "MIC", "setting": "[6]; DSY2293, YNB pH 7.0", "result": 0.625, "unit": "µM"}, {"measurement": "MIC", "setting": "[6]; DSY2294, YNB pH 7.0", "result": "> 40", "unit": "µM"}, {"measurement": "MIC", "setting": "[6]; DSY2302, YNB pH 7.0", "result": 1.25, "unit": "µM"}]}]}
